Assay results as given in ChEMBL document CHEMBL4385619, “Identification of topoisomerases as molecular targets of cytosporolide C and its analog” (Bioorg Med Chem, 2019).
Activity calls are given as the source filed them. The calls are words filed in the database; no cut-off is given here.

Experiments:
HCT-116 = test: Antiproliferative activity against human HCT116 cells assessed as reduction in cell viability measured after 72 hrs by MTT assay; type: functional, cell-based; details: HCT-116, 72 h
MCF7 = test: Antiproliferative activity against human MCF7 cells assessed as reduction in cell viability measured after 72 hrs by MTT assay; type: functional, cell-based; details: MCF7, 72 h
[1] = target: DNA topoisomerase 2-alpha (Homo sapiens) (UniProt P11388); test: Inhibition of human DNA topoisomerase 2 mediated decatenation at 10 uM using kDNA as substrate after 30 mins by ethidium bromide staining-based agarose gel electrophoresis method
Chain of DNA topoisomerase 2-alpha (Homo sapiens) (P11388 whole entry): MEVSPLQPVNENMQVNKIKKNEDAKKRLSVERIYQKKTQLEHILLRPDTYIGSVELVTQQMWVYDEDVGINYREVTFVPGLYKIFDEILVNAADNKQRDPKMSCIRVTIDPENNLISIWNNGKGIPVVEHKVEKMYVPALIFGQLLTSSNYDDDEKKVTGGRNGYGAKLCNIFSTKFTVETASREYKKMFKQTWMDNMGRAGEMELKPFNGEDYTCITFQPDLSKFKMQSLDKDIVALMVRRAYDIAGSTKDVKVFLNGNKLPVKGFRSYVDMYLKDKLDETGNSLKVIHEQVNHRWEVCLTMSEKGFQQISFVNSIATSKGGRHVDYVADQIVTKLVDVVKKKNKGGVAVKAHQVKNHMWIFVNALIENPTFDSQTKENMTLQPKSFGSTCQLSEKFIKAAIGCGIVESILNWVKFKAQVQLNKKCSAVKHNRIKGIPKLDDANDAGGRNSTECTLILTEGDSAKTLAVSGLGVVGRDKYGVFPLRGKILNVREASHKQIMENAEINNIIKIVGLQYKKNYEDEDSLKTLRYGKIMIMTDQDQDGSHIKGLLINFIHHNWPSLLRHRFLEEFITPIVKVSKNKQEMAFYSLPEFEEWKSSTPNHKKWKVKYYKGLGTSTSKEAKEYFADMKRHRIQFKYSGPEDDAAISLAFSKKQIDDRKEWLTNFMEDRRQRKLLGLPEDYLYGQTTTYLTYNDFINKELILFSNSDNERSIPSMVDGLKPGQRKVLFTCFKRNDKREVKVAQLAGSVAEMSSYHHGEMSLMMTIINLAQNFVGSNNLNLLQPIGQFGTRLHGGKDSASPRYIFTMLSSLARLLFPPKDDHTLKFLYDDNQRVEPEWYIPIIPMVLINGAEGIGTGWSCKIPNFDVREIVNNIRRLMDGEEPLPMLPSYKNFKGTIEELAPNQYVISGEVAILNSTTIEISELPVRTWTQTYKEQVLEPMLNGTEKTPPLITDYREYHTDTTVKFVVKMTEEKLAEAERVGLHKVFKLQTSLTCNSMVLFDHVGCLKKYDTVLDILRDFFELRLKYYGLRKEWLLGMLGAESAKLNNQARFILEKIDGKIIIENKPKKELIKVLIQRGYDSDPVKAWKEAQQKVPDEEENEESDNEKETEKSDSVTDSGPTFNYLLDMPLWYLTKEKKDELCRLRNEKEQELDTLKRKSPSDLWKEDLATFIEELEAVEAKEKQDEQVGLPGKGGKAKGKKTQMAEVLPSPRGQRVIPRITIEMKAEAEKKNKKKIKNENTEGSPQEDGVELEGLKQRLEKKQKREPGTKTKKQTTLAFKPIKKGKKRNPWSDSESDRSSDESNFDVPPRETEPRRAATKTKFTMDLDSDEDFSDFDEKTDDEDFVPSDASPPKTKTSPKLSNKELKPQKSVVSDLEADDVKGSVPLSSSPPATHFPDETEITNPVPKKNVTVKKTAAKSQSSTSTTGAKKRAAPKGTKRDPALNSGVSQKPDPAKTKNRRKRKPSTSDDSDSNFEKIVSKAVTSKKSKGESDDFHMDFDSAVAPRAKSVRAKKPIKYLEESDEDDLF

A549 = test: Antiproliferative activity against human A549 cells assessed as reduction in cell viability measured after 72 hrs by MTT assay; type: functional, cell-based; details: A549, 72 h
[2] = target: T1, DNA topoisomerase 1 (Escherichia coli (strain K12)) (UniProt P06612); test: Inhibition of Escherichia coli topoisomerase 1 mediated DNA relaxation at 10 uM using plasmid pMT-puro DNA as substrate after 30 mins by ethidium bromide staining-based agarose gel electrophoresis method
T1 sequence (whole entry): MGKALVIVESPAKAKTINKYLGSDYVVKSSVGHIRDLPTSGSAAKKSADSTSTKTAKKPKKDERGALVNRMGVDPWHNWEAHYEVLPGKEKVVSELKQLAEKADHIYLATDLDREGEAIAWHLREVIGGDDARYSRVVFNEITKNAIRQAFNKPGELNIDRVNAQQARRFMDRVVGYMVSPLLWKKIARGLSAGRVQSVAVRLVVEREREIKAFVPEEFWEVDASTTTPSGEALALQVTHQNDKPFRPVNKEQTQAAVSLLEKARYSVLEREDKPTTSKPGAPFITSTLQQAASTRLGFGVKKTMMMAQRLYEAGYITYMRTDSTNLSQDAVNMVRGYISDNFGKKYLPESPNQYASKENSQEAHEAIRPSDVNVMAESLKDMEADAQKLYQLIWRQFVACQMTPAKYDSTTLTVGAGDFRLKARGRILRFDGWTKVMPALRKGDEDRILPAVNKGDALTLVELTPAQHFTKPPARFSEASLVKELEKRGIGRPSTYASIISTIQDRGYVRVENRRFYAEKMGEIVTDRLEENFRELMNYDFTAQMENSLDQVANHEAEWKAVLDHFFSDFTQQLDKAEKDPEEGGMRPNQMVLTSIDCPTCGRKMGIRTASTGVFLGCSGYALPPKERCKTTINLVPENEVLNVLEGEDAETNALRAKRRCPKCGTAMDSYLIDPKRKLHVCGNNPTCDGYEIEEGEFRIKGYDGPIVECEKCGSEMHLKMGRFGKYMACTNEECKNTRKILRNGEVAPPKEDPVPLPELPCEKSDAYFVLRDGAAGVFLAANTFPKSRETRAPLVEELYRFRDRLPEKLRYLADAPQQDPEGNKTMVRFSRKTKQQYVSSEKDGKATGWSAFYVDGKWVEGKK

[3] = target: T1, DNA topoisomerase 1 (Escherichia coli (strain K12)); test: Inhibition of Escherichia coli topoisomerase 1 mediated DNA relaxation at 1 uM using plasmid pMT-puro DNA as substrate after 30 mins by ethidium bromide staining-based agarose gel electrophoresis method
[4] = target: T1, DNA topoisomerase 1 (Escherichia coli (strain K12)); test: Inhibition of Escherichia coli topoisomerase 1 mediated DNA relaxation using plasmid pMT-puro DNA as substrate after 30 mins by ethidium bromide staining-based agarose gel electrophoresis method

Row | SMILES | IC50 (HCT-116) [µM] | IC50 (MCF7) [µM] | inhibition [1] | IC50 (A549) [µM] | inhibition [2] | inhibition [3] | inhibition [4]
1 | CO[C@@H]1/C=C(\C)C[C@H](OC(C)=O)[C@]2(O)[C@H](CC2(C)C)/C(COC(C)=O)=C\1 | > 10 | > 10 | inactive | > 10 | inactive | – | –
2 | CC[C@@]1(O)C(=O)OCc2c1cc1n(c2=O)Cc2cc3ccccc3nc2-1 | – | – | – | – | – | Active | –
3 | CCCCCCC[C@@H]1Cc2cc(O)c(C(=O)O)c3c2[C@H](O1)[C@H]1[C@@H](OC)/C=C(/CO)[C@H]2CC(C)(C)[C@]2(O)[C@@H](O)C[C@]1(C)O3 | > 10 | > 10 | inactive | > 10 | inactive | – | –
4 | CCCCCCC[C@@H]1Cc2cc(O)c(C(=O)O)c3c2[C@H](O1)[C@H]1[C@@H](OC)/C=C(/COC(C)=O)[C@H]2CC(C)(C)[C@]2(O)[C@@H](O)C[C@]1(C)O3 | 5.98 | 8.88 | inactive | 6.31 | Active | – | –
5 | CCCCCCC[C@@H]1Cc2cc(O)c(C(=O)O)c(O)c2[C@H](O)O1 | > 10 | > 10 | Active | > 10 | inactive | – | –
6 | C[C@H]([C@H](C)N1CC(=O)NC(=O)C1)N1CC(=O)NC(=O)C1 | – | – | Active | – | – | – | –
7 | CO[C@@H]1/C=C(\C)C[C@H](O)[C@]2(O)[C@H](CC2(C)C)/C(CO)=C\1 | > 10 | > 10 | inactive | > 10 | inactive | – | –
8 | C=C1CC[C@@H]2[C@H]3O[C@H](CCCCCCC)Cc4cc(O)c(C(=O)O)c(c43)O[C@@]2(C)CC[C@@H]2[C@@H]1CC2(C)C | 3.91 | 7.28 | Active | 5.01 | Active | – | Dose-dependent effect
9 | CCCCCCC[C@@H]1Cc2cc(O)c(C(=O)O)c3c2[C@H](O1)[C@H]1[C@@H](OC)/C=C(/COC(C)=O)[C@H]2CC(C)(C)[C@]2(O)[C@@H](OC(C)=O)C[C@]1(C)O3 | > 10 | > 10 | inactive | > 10 | inactive | – | –
